Experimental data reported in patent publication US20130190399A1, “Synthesis and use of omega-3 and omega 6 very long chain polyunsaturated fatty acids (VLC-PUFA)” (MARTEK BIOSCIENCES CORPORATION, priority 2009, published 2013).
pEC50, pIC50: −log10 of the molar value.

Legend:
Format in all cases: cell-based, rat
[1] = test system: primary hippocampal neurons; assay: Glutamate neurotoxicity, cell death (propidium iodide) after VLC-PUFA pretreatment; settings: for pIC50: Rattus norvegicus, Hippocampal neuron, 48 h pretreatment, L-glutamic acid 50 μM 60 min, assayed 24 h later, read-out: half-maximal inhibitory concentration (IC50), inhibition of cell death due to glutamate exposure; for concentrations at which cell death due to glutamate exposure was significantly inhibited: tested 0.1-30 μM, ANOVA/Tukey vs injured vehicle control, p<0.05
Description: (§1) Primary hippocampal neurons were harvested from embryonic day 17-18 rat fetuses using a modified version of previously described protocols (Banker and Cowan, 1977; Brewer et al., 1993) that preferentially select for neuronal growth over glial growth (Brewer, 1997). Pregnant dams were anesthetized via isoflurane on gestational day 18, and the rat fetuses were harvested by Cesarean section. Brains were removed and placed in ice-cold (4° C.) Hibernate EB (Brain Bits, Inc., Springfield, Il, USA) until all of the hippocampi were dissected. During the dissection, brain tissue was kept on an ice-cold block in Hibernate E solution. Dissected hippocampal tissue was washed once in room-temperature Hibernate E (without calcium, Brain Bits, Inc.) to remove divalent cations, and then incubated at 37° C. in a solution consisting of 0.17% trypsin in Hybernate E (without calcium) for 10 minutes. The tissue was subsequently washed once with ice-cold Hybernate E (without calcium) containing 15% fetal bovine serum (Atlas Biologicals, Fort Collins, Colo., USA) and then dissociated by trituration in the same media. Dispersed cell suspensions were centrifuged for 2 minutes at 200 g at 4° C., and resuspended in ice-cold Neurobasal medium (Invitrogen, Carlsbad, Calif., USA) supplemented with 1×B27 (Invitrogen), 100 μg/ml penicillin-streptomycin (Invitrogen), 0.5 mM L-glutamine (Invitrogen) and 0.025 mM L-glutamate (Sigma, St. Louis, Mo., USA). Viable cell number and concentration were determined by trypan blue exclusion and counted using an automated cell counter (Countess, Invitrogen). Cell suspensions were diluted in warm Neurobasal/B27 media and plated at a density of 30,000 cells per well in 96-well plates (Falcon Optilux plates, BD Biosciences, Bedford, Mass., USA) coated with laminin (Sigma) and poly-D-lysine (Sigma). Cultures were maintained in a temperature- (37° C.), humidity- (−100%), and gas- (5% CO2, 9% O2) controlled incubator. Half of the media was removed and replaced with fresh media every other day. All cultures were maintained for 3 days in vitro (DIV) in glutamate-containing media and then maintained an additional 7 DIV (glutamate neurotoxicity experiments) or 8 DIV (hypoxia) in Neurobasal/B27 media without glutamate.
(§2) Very long-chain polyunsaturated fatty acids (VLCPUFAs; 34:6n3, 34:5n3, 28:6n3, 28:5n3, and 28:4n6) were obtained as the free fatty acid and were stored at −20° C. until use. Each VLC-PUFA was dissolved in methanol to an initial concentration of 100 mM and then diluted serially in methanol to obtain 1000× stocks for each concentration tested. These were diluted further in media to obtain the appropriate concentration within the culture wells (final concentrations of 30 μM, 10 μM, 3 μM, 1 μM, 0.3 μM, and 0.1 μM). Controls received methanol similarly diluted in media (final concentration 0.1%). The VLC-PUFAs were added to the cultures 48 hours prior to glutamate insult or hypoxia exposure (described below), and a 50% media change occurred immediately prior to hypoxia exposure or immediately following glutamate exposure.
Cultures were treated with L-glutamic acid (50 μM, pH 7.0) for 60 minutes followed by a complete media change containing the appropriate concentrations of VLC-PUFAs. Cells were assayed for viability and mitochondrial health 24 hours after the glutamate treatment. […]

[2] = test system: primary hippocampal neurons; assay: Mitochondrial health (TMRE) after glutamate-induced neurotoxicity; settings: for pEC50: Rattus norvegicus, Hippocampal neuron, 48 h pretreatment, L-glutamic acid 50 μM 60 min, assayed 24 h later, read-out: half-maximal effective concentration (EC50), increase of mitochondrial health after glutamate; for concentrations at which mitochondrial health after glutamate was significantly increased: tested 0.1-30 μM, ANOVA/Tukey vs injured vehicle control
Description: as §1, §2
Cultures were treated with L-glutamic acid (50 μM, pH 7.0) for 60 minutes followed by a complete media change containing the appropriate concentrations of VLC-PUFAs. Cells were assayed for viability and mitochondrial health 24 hours after the glutamate treatment.
Following glutamate exposure or hypoxia, cultures were aspirated with a 96-well plate washer (BioTek, Winooski, Vt., USA) and incubated for 15 minutes at 37° C. with phenol-free Neurobasal media (Invitrogen) containing one of two dye mixtures: 1) Hoechst dye (1:2000 of a 10 μg/ml solution, Invitrogen) and propidium iodide (PI; 1:500 of a 1 μg/ml solution; Invitrogen), or 2) Hoechst dye and tetramethylrhodamine ethyl ester (TMRE; 100 nM; Invitrogen). These dyes identify total cells (Hoechst), dying or dead cells (PI), and functional mitochondria (TMRE). […]

[3] = test system: primary hippocampal neurons; assay: Hypoxia, cell death (propidium iodide) after VLC-PUFA pretreatment; settings: 48 h hypoxia, O2 ≦0.3%, tested 0.1-30 μM
Description: as §1, with “All cultures were maintained for 3 days in vitro (DIV) in glutamate-containing media and then maintained an additional 7 DIV (glutamate neurotoxicity experiments) or 8 DIV (hypoxia) in Neurobasal/B27 media without glutamate.” left out

[4] = test system: primary hippocampal neurons; assay: Mitochondrial health (TMRE) after hypoxia; settings: 48 h hypoxia, O2 ≦0.3%; tested 0.1-30 μM
Description: Primary hippocampal neurons were harvested from embryonic day 17-18 rat fetuses using a modified version of previously described protocols (Banker and Cowan, 1977; Brewer et al., 1993) that preferentially select for neuronal growth over glial growth (Brewer, 1997). Pregnant dams were anesthetized via isoflurane on gestational day 18, and the rat fetuses were harvested by Cesarean section. Brains were removed and placed in ice-cold (4° C.) Hibernate EB (Brain Bits, Inc., Springfield, Il, USA) until all of the hippocampi were dissected. During the dissection, brain tissue was kept on an ice-cold block in Hibernate E solution. Dissected hippocampal tissue was washed once in room-temperature Hibernate E (without calcium, Brain Bits, Inc.) to remove divalent cations, and then incubated at 37° C. in a solution consisting of 0.17% trypsin in Hybernate E (without calcium) for 10 minutes. The tissue was subsequently washed once with ice-cold Hybernate E (without calcium) containing 15% fetal bovine serum (Atlas Biologicals, Fort Collins, Colo., USA) and then dissociated by trituration in the same media. […] Viable cell number and concentration were determined by trypan blue exclusion and counted using an automated cell counter (Countess, Invitrogen). […]

| SMILES | pIC50 [1] | concentrations at which cell death due to glutamate exposure was significantly inhibited [1] [µM] | pEC50 [2] | concentrations at which mitochondrial health after glutamate was significantly increased [2] [µM] | effect on hypoxia-induced cell death (in words) [3] | concentrations at which cell death due to hypoxia was significantly inhibited ([3]; 48 h pretreatment) [µM] | effect on mitochondrial health after hypoxia (in words) [4] |
| --- | --- | --- | --- | --- | --- | --- | --- |
| CC/C=C\C/C=C\C/C=C\C/C=C\C/C=C\C/C=C\CCCCCCCCC(=O)O [28:6n3] | 6.68 | ≥ 0.3 | 6.77 | ≥ 3.0 | did not inhibit hypoxia-induced cell death at any concentration tested | – | – |
| CC/C=C\C/C=C\C/C=C\C/C=C\C/C=C\CCCCCCCCCCCCCCCCCC(=O)O [34:5n3] | 6.16 | – | 6.17 | 3.0 | exhibited a main effect of treatment, but only one concentration (0.3 μM) approached a significant difference when compared to controls | – | – |
| CC/C=C\C/C=C\C/C=C\C/C=C\C/C=C\C/C=C\CCCCCCCCCCCCCCC(=O)O [34:6n3] | 5.97 | ≥ 3.0 | 6.60 | ≥ 0.3 | – | 1.0 | did not significantly alter mitochondrial health at the concentrations tested |
